According to patent US10975037B2 (priority 2018, dated 2021):
Read-outs that look alike come from different tables or passages of the source.

Tests used:
[1] = target: human RORγt ligand binding domain (RORγt LBD) (Homo sapiens (Human), UniProt P51449); assay: RORγt ThermoFluor® assay (thermal shift binding); conditions: read-out: ThermoFluor® Assay, Kd
How it was run: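 Thermal shift with 0.065 mg/mL RORγt LBD and 60 μM 1,8-ANS in 100 mM Hepes pH 7.0, 10 mM NaCl, 2.5 mM GSH, 0.002% Tween-20.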

full-length human RORγt = full-length human RORγt (Homo sapiens (Human), UniProt P51449); assay: RORγt (full-length human) reporter assay, conditions A or B, HEK293T cells; format: cell-based; conditions: for IC50: RORγt (FL) Reporter Assay A or B, IC50, HEK293T cells; for inhibition at 2 µM: 2 μM compound concentration
Chain of full-length human RORγt (P51449 other isoform, or with tags, fused parts or gaps): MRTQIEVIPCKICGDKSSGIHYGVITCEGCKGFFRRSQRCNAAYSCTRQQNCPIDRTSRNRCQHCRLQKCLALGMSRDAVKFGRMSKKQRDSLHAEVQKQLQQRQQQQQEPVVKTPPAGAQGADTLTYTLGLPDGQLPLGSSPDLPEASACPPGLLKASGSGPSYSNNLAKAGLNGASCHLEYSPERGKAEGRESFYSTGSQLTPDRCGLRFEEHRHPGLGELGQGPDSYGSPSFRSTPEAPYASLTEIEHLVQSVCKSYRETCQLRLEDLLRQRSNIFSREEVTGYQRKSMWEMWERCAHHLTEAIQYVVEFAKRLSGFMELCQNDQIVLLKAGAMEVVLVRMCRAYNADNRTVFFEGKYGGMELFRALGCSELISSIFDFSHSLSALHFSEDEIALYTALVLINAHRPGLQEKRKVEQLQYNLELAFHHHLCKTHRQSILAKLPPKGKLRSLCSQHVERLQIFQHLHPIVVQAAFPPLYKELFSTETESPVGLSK
How it was run: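 Dual-luciferase read-out was taken after an overnight (16–20 h) compound exposure. Firefly data were scaled between DMSO-only and saturating reference compound, Renilla-normalized, then plotted against concentration for IC50.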

[2] = HEK-293T, 0.22 μM compound concentration (footnote *******), read-out: RORγt (FL) Reporter Assay A or B, % inhibition
[3] = HEK-293T, read-out: RORγt (FL) Reporter Assay A or B, % inhibition
[4] = HEK-293T, 0.67 μM compound concentration (footnote ****), read-out: RORγt (FL) Reporter Assay A or B, % inhibition
[5] = HEK-293T, 0.33 μM compound concentration (footnote *****), read-out: RORγt (FL) Reporter Assay A or B, % inhibition
[6] = HEK-293T, 3 μM compound concentration (footnote *), read-out: RORγt (FL) Reporter Assay A or B, % inhibition

Chain of human RORγt ligand binding domain (RORγt LBD) (P51449 other isoform, or with tags, fused parts or gaps): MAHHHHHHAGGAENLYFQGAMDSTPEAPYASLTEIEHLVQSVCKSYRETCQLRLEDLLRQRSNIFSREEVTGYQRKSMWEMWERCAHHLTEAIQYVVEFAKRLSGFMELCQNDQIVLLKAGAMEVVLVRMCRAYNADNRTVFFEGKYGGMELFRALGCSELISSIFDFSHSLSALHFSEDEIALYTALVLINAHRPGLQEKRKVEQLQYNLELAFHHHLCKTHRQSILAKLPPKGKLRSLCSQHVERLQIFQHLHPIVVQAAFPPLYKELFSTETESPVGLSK

| SMILES | Kd [1] | IC50 (full-length human RORγt) | other results |
| --- | --- | --- | --- |
| CCn1nc(C(=O)NC[C@H]2CC[C@H](S(C)(=O)=O)CC2)c(Cl)c1-c1ccc(CCCC(F)(F)F)cc1OC(F)F [Example 76, 4-Chloro-5-(2-(difluoromethoxy)-4-(4,4,4-trifluorobutyl)phenyl)-1-ethyl-N-(((1r,4r)-4-(methylsulfonyl)cyclohexyl)methyl)-1H-pyrazole-3-carboxamide] | 0.28 nM | 2.1 nM | inhibition at […] (full-length human RORγt; [2]): 103% |
| CCn1nc(C(=O)NC[C@]2(O)CC[C@@H](S(C)(=O)=O)CC2)c(Cl)c1-c1ccc(CCCC(F)(F)F)cc1OC(F)F [Example 77, 4-Chloro-5-(2-(difluoromethoxy)-4-(4,4,4-trifluorobutyl)phenyl)-1-ethyl-N-(((1s,4s)-1-hydroxy-4-(methylsulfonyl)cyclohexyl)methyl)-1H-pyrazole-3-carboxamide] | 1.2 nM | 5.6 nM | inhibition at 2 µM (full-length human RORγt; [3]): 96% |
| CCn1nc(C(=O)NC[C@H]2CC[C@H](S(C)(=O)=O)CC2)c(C)c1-c1ccc(CCCC(F)(F)F)cc1OC(F)F [Example 78, 5-(2-(Difluoromethoxy)-4-(4,4,4-trifluorobutyl)phenyl)-1-ethyl-4-methyl-N-(((1r,4r)-4-(methylsulfonyl)cyclohexyl)methyl)-1H-pyrazole-3-carboxamide] | 0.59 nM | 12 nM | inhibition at […] (full-length human RORγt; [2]): 93% |
| CCn1nc(C(=O)NC[C@H]2CC[C@H](S(C)(=O)=O)CC2)c(Cl)c1-c1ccc(CCCC(F)(F)F)cc1OC [Example 80, 4-Chloro-1-ethyl-5-(2-methoxy-4-(4,4,4-trifluorobutyl)phenyl)-N-(((1r,4r)-4-(methylsulfonyl)cyclohexyl)methyl)-1H-pyrazole-3-carboxamide] | 2.3 nM | 6 nM | inhibition at 2 µM (full-length human RORγt; [3]): 89% |
| CCn1nc(C(=O)NC[C@]2(O)CC[C@@H](S(C)(=O)=O)CC2)c(Cl)c1-c1ccc(CCCC(F)(F)F)cc1OC [Example 81, 4-Chloro-1-ethyl-N-(((1s,4s)-1-hydroxy-4-(methylsulfonyl)cyclohexyl)methyl)-5-(2-methoxy-4-(4,4,4-trifluorobutyl)phenyl)-1H-pyrazole-3-carboxamide] | 5.1 nM | 13 nM | inhibition at 2 µM (full-length human RORγt; [3]): 89% |
| CCn1nc(C(=O)NC[C@H]2CC[C@H](S(C)(=O)=O)CC2)c(C)c1-c1ccc(CCCC(F)(F)F)cc1OC [Example 82, 1-Ethyl-5-(2-methoxy-4-(4,4,4-trifluorobutyl)phenyl)-4-methyl-N-(((1r,4r)-4-(methylsulfonyl)cyclohexyl)methyl)-1H-pyrazole-3-carboxamide] | 4.1 nM | 14 nM | inhibition at 0.67 µM (full-length human RORγt; [4]): 87% |
| CCn1nc(C(=O)NC[C@]2(O)CC[C@@H](S(C)(=O)=O)CC2)c(C)c1-c1ccc(CCCC(F)(F)F)cc1OC [Example 83, 1-Ethyl-N-(((1s,4s)-1-hydroxy-4-(methylsulfonyl)cyclohexyl)methyl)-5-(2-methoxy-4-(4,4,4-trifluorobutyl)phenyl)-4-methyl-1H-pyrazole-3-carboxamide] | 11 nM | 33 nM | inhibition at 0.67 µM (full-length human RORγt; [4]): 87% |
| CCn1nc(C(=O)NC[C@H]2CC[C@H](S(C)(=O)=O)CC2)c(Cl)c1-c1ccc(CC(C(F)(F)F)C(F)(F)F)cc1OC [Example 84, 4-Chloro-1-ethyl-5-(2-methoxy-4-(3,3,3-trifluoro-2-(trifluoromethyl)propyl)phenyl)-N-(((1r,4r)-4-(methylsulfonyl)cyclohexyl)methyl)-1H-pyrazole-3-carboxamide] | 0.7 nM | 10 nM | inhibition at 0.67 µM (full-length human RORγt; [3]): 87% |
| CCn1nc(C(=O)NC[C@H]2CC[C@H](S(C)(=O)=O)CC2)c(Cl)c1-c1ccc(CC(C(F)(F)F)C(F)(F)F)cc1OC(F)F [Example 86, 4-Chloro-5-(2-(difluoromethoxy)-4-(3,3,3-trifluoro-2-(trifluoromethyl)propyl)phenyl)-1-ethyl-N-(((1r,4r)-4-(methylsulfonyl)cyclohexyl)methyl)-1H-pyrazole-3-carboxamide] | 0.17 nM | 5.6 nM | inhibition at 0.67 µM (full-length human RORγt; [4]): 103% |
| CCn1nc(C(=O)NC[C@H]2CC[C@H](S(C)(=O)=O)CC2)c(C)c1-c1ccc(CC(C(F)(F)F)C(F)(F)F)cc1OC(F)F [Example 87, 5-(2-(Difluoromethoxy)-4-(3,3,3-trifluoro-2-(trifluoromethyl)propyl)phenyl)-1-ethyl-4-methyl-N-(((1r,4r)-4-(methylsulfonyl)cyclohexyl)methyl)-1H-pyrazole-3-carboxamide] | 0.14 nM | 3 nM | inhibition at 0.07 µM (full-length human RORγt; HEK-293T, 0.07 μM compound concentration (footnote *********), read-out: RORγt (FL) Reporter Assay A or B, % inhibition): 100% |
| CCn1nc(C(=O)NC[C@]2(O)CC[C@@H](S(C)(=O)=O)CC2)c(Cl)c1-c1ccc(CC(C)(C)C(F)(F)F)cc1C#N [Example 88, 4-Chloro-5-(2-cyano-4-(3,3,3-trifluoro-2,2-dimethylpropyl)phenyl)-1-ethyl-N-(((1s,4s)-1-hydroxy-4-(methylsulfonyl)cyclohexyl)methyl)-1H-pyrazole-3-carboxamide] | 15 nM | 130 nM | inhibition at 3 µM (full-length human RORγt; [3]): 88% |

The next lines start with results.

| Kd [1] | IC50 (full-length human RORγt) | SMILES | other results |
| --- | --- | --- | --- |
| 0.24 nM | 5.4 nM | CCn1nc(C(=O)NC[C@H]2CC[C@H](S(C)(=O)=O)CC2)c(Cl)c1-c1ccc(CC(C)(C)CC(F)(F)F)cc1OC(F)F [Example 89, 4-Chloro-5-(2-(difluoromethoxy)-4-(4,4,4-trifluoro-2,2-dimethylbutyl)phenyl)-1-ethyl-N-(((1r,4r)-4-(methylsulfonyl)cyclohexyl)methyl)-1H-pyrazole-3-carboxamide] | inhibition at […] (full-length human RORγt; [5]): 98% |
| 0.51 nM | 9.6 nM | CCn1nc(C(=O)NC[C@]2(O)CC[C@@H](S(C)(=O)=O)CC2)c(Cl)c1-c1ccc(CC(C)(C)CC(F)(F)F)cc1OC(F)F [Example 90, 4-Chloro-5-(2-(difluoromethoxy)-4-(4,4,4-trifluoro-2,2-dimethylbutyl)phenyl)-1-ethyl-N-(((1s,4s)-1-hydroxy-4-(methylsulfonyl)cyclohexyl)methyl)-1H-pyrazole-3-carboxamide] | inhibition at […] (full-length human RORγt; [5]): 91% |
| 0.24 nM | 3.7 nM | CCn1nc(C(=O)NC[C@]2(CO)CC[C@@H](S(C)(=O)=O)CC2)c(Cl)c1-c1ccc(CC(C)(C)C(F)(F)F)cc1OC(F)F [Example 91, 4-Chloro-5-(2-(difluoromethoxy)-4-(3,3,3-trifluoro-2,2-dimethylpropyl)phenyl)-1-ethyl-N-(((1s*,4s*)-1-(hydroxymethyl)-4-(methylsulfonyl)cyclohexyl)methyl)-1H-pyrazole-3-carboxamide] | inhibition at 1 µM (full-length human RORγt; HEK-293T, 1 μM compound concentration (footnote ***), read-out: RORγt (FL) Reporter Assay A or B, % inhibition): 99% |
| 310 nM | 71 nM | CCn1nc(C(=O)NC[C@]2(O)CC[C@@H](S(C)(=O)=O)CC2)c(Cl)c1-c1ccc(C(O)CCC(F)(F)F)cc1OC(F)F (stereo partly drawn) [Example 98, 4-Chloro-5-(2-(difluoromethoxy)-4-(4,4,4-trifluoro-1-hydroxybutyl)phenyl)-1-ethyl-N-(((1s,4s)-1-hydroxy-4-(methylsulfonyl)cyclohexyl)methyl)-1H-pyrazole-3-carboxamide] | inhibition at 3 µM (full-length human RORγt; [6]): 89% |
| 47 nM | 220 nM | CCn1nc(C(=O)NC[C@]2(O)CC[C@@H](S(C)(=O)=O)CC2)c(Cl)c1-c1ccc(C2(O)CCC(F)(F)CC2)cc1OC(F)F [Example 104, 4-Chloro-5-(4-(4,4-difluoro-1-hydroxycyclohexyl)-2-(difluoromethoxy)phenyl)-1-ethyl-N-(((1s,4s)-1-hydroxy-4-(methylsulfonyl)cyclohexyl)methyl)-1H-pyrazole-3-carboxamide] | inhibition at 3 µM (full-length human RORγt; [6]): 98% |
| 3.3 nM | 13 nM | CCn1nc(C(=O)NC[C@]2(O)CC[C@@H](S(C)(=O)=O)CC2)c(Cl)c1-c1ccc(C(=O)C(C)(C)C(F)(F)F)cc1OC(F)F [Example 105, 4-Chloro-5-(2-(difluoromethoxy)-4-(3,3,3-trifluoro-2,2-dimethylpropanoyl)phenyl)-1-ethyl-N-(((1s,4s)-1-hydroxy-4-(methylsulfonyl)cyclohexyl)methyl)-1H-pyrazole-3-carboxamide] | inhibition at 3 µM (full-length human RORγt; [3]): 28% |
| 0.15 nM | 3.4 nM | CCn1nc(C(=O)NC[C@H]2CC[C@H](S(C)(=O)=O)CC2)c(Cl)c1-c1ccc(C(O)(C(F)(F)F)C(F)(F)F)cc1OC(F)F [Example 116, 4-Chloro-5-(2-(difluoromethoxy)-4-(1,1,1,3,3,3-hexafluoro-2-hydroxypropan-2-yl)phenyl)-1-ethyl-N-(((1r,4r)-4-(methylsulfonyl)cyclohexyl)methyl)-1H-pyrazole-3-carboxamide] | inhibition at 3 µM (full-length human RORγt; [6]): 106% |
| 0.27 nM | 4.2 nM | CCn1nc(C(=O)NC[C@]2(O)CC[C@@H](S(C)(=O)=O)CC2)c(Cl)c1-c1ccc(C(O)(C(F)(F)F)C(F)(F)F)cc1OC(F)F [Example 117, 4-Chloro-5-(2-(difluoromethoxy)-4-(1,1,1,3,3,3-hexafluoro-2-hydroxypropan-2-yl)phenyl)-1-ethyl-N-(((1s,4s)-1-hydroxy-4-(methylsulfonyl)cyclohexyl)methyl)-1H-pyrazole-3-carboxamide] | inhibition at 3 µM (full-length human RORγt; [6]): 102% |
